From PMC10885593, “Evidence that inositol 1,4,5-trisphosphate 3-kinase and inositol 1,3,4,5-tetrakisphosphate are negative regulators of platelet function” (Research and Practice in Thrombosis and Haemostasis, 2024)

Tests used:
Test in all cases: competition pull-down with PIP3 beads, Western blot
Type in all cases: binding
BTK [1] = molecular target: T1, BTK (Homo sapiens, UniProt Q06187); conditions: human platelet NP40 lysate; competes with bead-bound PIP3 (about 800 nM); pH 7.4, 4 °C, 5 mM EDTA, 5 mM EGTA
T1 construct: native full-length protein in NP40 lysate of washed human platelets, captured on PIP3 beads, Western blot read-out
T1 sequence (Q06187 2-659): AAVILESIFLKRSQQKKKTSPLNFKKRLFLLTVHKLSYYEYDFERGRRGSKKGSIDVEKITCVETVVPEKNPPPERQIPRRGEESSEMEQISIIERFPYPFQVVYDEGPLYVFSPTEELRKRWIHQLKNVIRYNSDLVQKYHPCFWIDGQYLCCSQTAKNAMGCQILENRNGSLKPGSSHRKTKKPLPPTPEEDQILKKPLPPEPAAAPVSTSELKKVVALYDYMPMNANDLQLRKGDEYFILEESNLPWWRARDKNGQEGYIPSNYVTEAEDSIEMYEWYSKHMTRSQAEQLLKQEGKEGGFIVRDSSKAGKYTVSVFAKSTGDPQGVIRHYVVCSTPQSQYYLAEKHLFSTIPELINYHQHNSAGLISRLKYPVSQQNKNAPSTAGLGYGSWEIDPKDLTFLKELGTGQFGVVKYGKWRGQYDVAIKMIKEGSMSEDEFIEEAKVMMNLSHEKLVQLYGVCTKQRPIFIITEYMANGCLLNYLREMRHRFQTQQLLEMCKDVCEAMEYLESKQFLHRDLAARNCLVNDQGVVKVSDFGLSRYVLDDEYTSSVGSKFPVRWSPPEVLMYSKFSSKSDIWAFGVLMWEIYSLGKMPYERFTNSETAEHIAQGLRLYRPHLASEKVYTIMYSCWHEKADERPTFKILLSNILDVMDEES

RASA3 = molecular target: T2, RASA3 (Homo sapiens, UniProt Q14644); conditions: read-out: % inhibition of extraction at 40 μM
T2 construct: native full-length protein in NP40 lysate of washed human platelets, captured on PIP3 beads, Western blot read-out
T2 sequence (Q14644 2-834): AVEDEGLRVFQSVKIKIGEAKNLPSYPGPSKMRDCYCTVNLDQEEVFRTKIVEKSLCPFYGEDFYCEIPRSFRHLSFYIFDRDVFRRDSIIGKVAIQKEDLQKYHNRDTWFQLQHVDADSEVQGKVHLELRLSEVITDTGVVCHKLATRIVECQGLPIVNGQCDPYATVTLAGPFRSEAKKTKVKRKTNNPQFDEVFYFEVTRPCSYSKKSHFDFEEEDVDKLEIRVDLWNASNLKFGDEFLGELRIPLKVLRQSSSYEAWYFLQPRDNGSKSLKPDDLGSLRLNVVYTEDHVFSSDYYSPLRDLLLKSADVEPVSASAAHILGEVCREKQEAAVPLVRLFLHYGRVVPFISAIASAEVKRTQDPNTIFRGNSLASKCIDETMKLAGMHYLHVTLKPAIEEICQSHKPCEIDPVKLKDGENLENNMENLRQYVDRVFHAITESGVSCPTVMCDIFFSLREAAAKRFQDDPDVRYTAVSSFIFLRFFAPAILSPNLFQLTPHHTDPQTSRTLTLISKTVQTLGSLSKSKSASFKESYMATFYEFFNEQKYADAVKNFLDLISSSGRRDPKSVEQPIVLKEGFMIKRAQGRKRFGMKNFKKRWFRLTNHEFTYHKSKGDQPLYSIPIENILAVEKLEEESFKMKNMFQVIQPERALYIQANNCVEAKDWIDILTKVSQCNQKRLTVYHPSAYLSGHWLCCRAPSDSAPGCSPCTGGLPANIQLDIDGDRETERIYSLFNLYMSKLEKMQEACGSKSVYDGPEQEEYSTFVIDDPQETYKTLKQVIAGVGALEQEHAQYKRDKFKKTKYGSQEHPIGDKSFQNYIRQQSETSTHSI

BTK [2] = molecular target: T1, BTK; conditions: human platelet NP40 lysate; competes with bead-bound PIP3 (about 800 nM); pH 7.4, 4 °C, 5 mM EDTA, 5 mM EGTA; remark: listed apart in the source

Compound	inhibition of extraction by PIP3 beads at 40 μM (BTK [1])	inhibition at 40 µM (RASA3) [%]	inhibition of extraction by PIP3 beads (BTK [2])
CCCCCCCC(=O)OC[C@H](COP(=O)(O)O[C@H]1[C@H](O)[C@@H](OP(=O)(O)O)[C@H](OP(=O)(O)O)[C@@H](OP(=O)(O)O)[C@H]1O)OC(=O)CCCCCCC [DiC8-PIP3]	exogenously added DiC8-PIP3 was marginally less potent at competing with PIP3 beads		
O=P(O)(O)OC1[C@H](O)[C@H](OP(=O)(O)O)C(OP(=O)(O)O)[C@H](OP(=O)(O)O)[C@H]1O (stereo partly drawn) [IP4]		> 90	IP4 also reduced extraction of the PH domain–bearing tyrosine kinase BTK
